This note sets out measurements from US12187709B2 (Genentech, Inc., priority 2021, dated 2025).

The target of one assay is Cbl-b (Homo sapiens (Human), UniProt Q13191). The assay can be described thus: Cbl-b LCK Ub TR-FRET assay (Cbl-b Lck HTRF). The class given is biochemical. The settings on record: for IC50: Cbl-b LCK Ub TR-FRET. Summed up: (§1)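 Signal is read once the detection mix has stood 20 min at ambient temperature. Curves are anchored by DMSO as maximum and by omission of LCK as minimum.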

In the next assay the target is c-Cbl (Homo sapiens (Human), UniProt P22681). As to the kind of experiment: C-Cbl LCK Ub TR-FRET assay (C-cbl Lck HTRF). The class given is biochemical. Put shortly: as §1
(TR-FRET usually uses a lanthanide donor and a delayed reading to cut background.)

Assay [1] has as its target Human Cbl-b (residues 40-426) (Homo sapiens (Human), UniProt Q13191). As to the kind of experiment: Cbl-b SPR assay. The class given is binding. The settings on record: for Fold of selectivity: C-cbl SPR Kd vs Cbl-b SPR Kd; for Kd: SPR, 20° C. Put shortly: (§2)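 SPR, multi-cycle, 6-pt 2-fold series, blanks flanking for double referencing; capture 1300-1500 RU; contact 60 s at 40 μl/min; dissoc. 120-1200 s (~4-5 half-lives). 1:1 fit. Chaser variant: single cycle, 5 conc., top 500 nM, 120 s contact, 450 s dissociation.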

The target in the next assay is c-Cbl (residues 47-435) (Homo sapiens (Human), UniProt P22681). As to the kind of experiment: c-Cbl SPR assay. The class given is binding. The settings on record: 20° C. Put shortly: as §2
Where [2] appears, read: ratio C-cbl Lck HTRF IC50 / Cbl-b Lck HTRF IC50.

As usually defined, the IC50 is the point on the concentration scale where inhibition reaches its midpoint. The low end stands for inhibition by little substance, the high end for a need for much substance. As a reminder, the Kd is the equilibrium constant for the complex coming apart. Read a high Kd as weaker binding.

c-Cbl, sequence (P22681 47-435): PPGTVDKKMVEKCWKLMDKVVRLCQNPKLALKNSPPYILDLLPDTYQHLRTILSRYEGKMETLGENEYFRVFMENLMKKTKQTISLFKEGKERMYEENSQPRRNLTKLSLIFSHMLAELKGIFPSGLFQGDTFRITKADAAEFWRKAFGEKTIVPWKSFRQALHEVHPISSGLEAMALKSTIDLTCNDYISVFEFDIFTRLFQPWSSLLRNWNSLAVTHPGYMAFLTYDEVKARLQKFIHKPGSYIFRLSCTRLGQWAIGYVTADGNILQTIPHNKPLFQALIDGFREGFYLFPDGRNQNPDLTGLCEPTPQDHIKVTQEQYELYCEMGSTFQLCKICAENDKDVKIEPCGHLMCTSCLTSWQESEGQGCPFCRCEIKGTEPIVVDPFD
c-Cbl (residues 47-435), sequence (P22681 47-435): as above
Cbl-b, sequence (Q13191 40-426): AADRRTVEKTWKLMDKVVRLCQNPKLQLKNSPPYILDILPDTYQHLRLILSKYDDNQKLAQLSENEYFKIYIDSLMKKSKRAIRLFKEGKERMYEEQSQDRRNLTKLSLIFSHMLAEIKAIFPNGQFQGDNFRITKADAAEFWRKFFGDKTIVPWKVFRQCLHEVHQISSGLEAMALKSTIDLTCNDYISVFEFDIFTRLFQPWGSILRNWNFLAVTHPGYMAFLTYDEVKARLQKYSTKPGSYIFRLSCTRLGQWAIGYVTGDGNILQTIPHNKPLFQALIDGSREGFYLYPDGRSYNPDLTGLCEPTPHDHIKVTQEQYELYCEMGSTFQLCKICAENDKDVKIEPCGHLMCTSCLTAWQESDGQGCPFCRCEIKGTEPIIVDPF
Human Cbl-b (residues 40-426), sequence (Q13191 40-426): as above

As for `Cn1cnnc1C(F)(c1cccc(N2Cc3c(cc(CNC4(C)CCC4)cc3C(F)(F)F)C2=O)c1)C1(F)COC1` (stereo in doubt) [Compound 403, (S)-2-(3-(fluoro(3-fluorooxetan-3-yl)(4-methyl-4H-1,2,4-triazol-3-yl)methyl)phenyl)-6-(((1-methylcyclobutyl)amino)methyl)-4-(trifluoromethyl)isoindolin-1-one], the IC50 against Cbl-b is 750 nM; against c-Cbl, 960 nM. The “fold-selectivity (Cbl-b over C-cbl)” value at Cbl-b (setting [2]) stood at 1.3x. In assay [1], this compound gave a Fold of selectivity of 1.0×. The Kd is 2500 nM in assay [1] and 2400 nM on c-Cbl (residues 47-435).

Regarding `Cn1cnnc1C(F)(c1cccc(N2Cc3c(cc(CNC4(C)CCC4)cc3C(F)(F)F)C2=O)c1)C1(F)COC1` (stereo in doubt) [Compound 404, (R)-2-(3-(fluoro(3-fluorooxetan-3-yl)(4-methyl-4H-1,2,4-triazol-3-yl)methyl)phenyl)-6-(((1-methylcyclobutyl)amino)methyl)-4-(trifluoromethyl)isoindolin-1-one], the IC50 at Cbl-b (Example 121) came to 4.8 nM; at c-Cbl, 4.9 nM. For the same compound, the “(fold-selectivity) Cbl-b and C-Cbl Selectivity” value on Cbl-b (setting [2]) is 1.0x. This compound also registered a Fold of selectivity in assay [1] of 2.6×. The Kd is 0.85 nM in assay [1] and 2.2 nM at c-Cbl (residues 47-435).

Consider `CCNc1cc(C2(c3nncn3C)CC3(COC3)C2)cc(N2Cc3c(cc(CNC4(C)CCC4)cc3C(F)(F)F)C2=O)n1` [Compound 7, 2-(6-(ethylamino)-4-(6-(4-methyl-4H-1,2,4-triazol-3-yl)-2-oxaspiro[3.3]heptan-6-yl)pyridin-2-yl)-6-(((1-methylcyclobutyl)amino)methyl)-4-(trifluoro-methyl)isoindolin-1-one], for which the IC50 against Cbl-b amounted to 27 nM; against c-Cbl it was 25 nM. Further, the “fold-selectivity (Cbl-b over C-cbl)” value at Cbl-b (setting [2]) is recorded as “(0.93x)”. In addition, the Fold of selectivity in assay [1] was 4.4×. Further, the Kd amounted to 1.3 nM in assay [1] and 5.7 nM on c-Cbl (residues 47-435).

Take `CO[C@H]1C[C@@](c2cc(NC3CCCC3)nc(N3Cc4c(cc(CNC5(C)CCC5)cc4C(F)(F)F)C3=O)c2)(c2nncn2C)C1` [Compound 8, 2-(6-(cyclopentylamino)-4-((1s,3s)-3-methoxy-1-(4-methyl-4H-1,2,4-triazol-3-yl)cyclobutyl)pyridin-2-yl)-6-(((1-methylcyclobutyl)amino)methyl)-4-(trifluoromethyl)isoindolin-1-one]: the IC50 came to 11 nM against Cbl-b and 43 nM against c-Cbl. In addition, on Cbl-b (setting [2]), the “fold-selectivity (Cbl-b over C-cbl)” value came out at 3.9x. Further, the Fold of selectivity in assay [1] was 6.9×. For the same compound, the figures for the Kd (in assay [1]; on c-Cbl (residues 47-435)) were 3.3 nM and 23 nM, respectively.

In the case of `CO[C@H]1C[C@](c2cc(NC3CCCC3)nc(N3Cc4c(cc(CNC5(C)CCC5)cc4C(F)(F)F)C3=O)c2)(c2nncn2C)C1` [Compound 9, 2-(6-(cyclopentylamino)-4-((1r,3r)-3-methoxy-1-(4-methyl-4H-1,2,4-triazol-3-yl)cyclobutyl)pyridin-2-yl)-6-(((1-methylcyclobutyl)amino)methyl)-4-(trifluoromethyl)isoindolin-1-one], the IC50 was 11 nM against Cbl-b and 118 nM at c-Cbl. The “fold-selectivity (Cbl-b over C-cbl)” value at Cbl-b (setting [2]) turned out to be 8.4x. Besides, the Fold of selectivity in assay [1] was found to be 20×. For the same compound, the Kd in assay [1] was found to be 11 nM; on c-Cbl (residues 47-435), 220 nM.

As for `Cn1cnnc1C1(c2cc(C3CC3)nc(N3Cc4c(cc(CNC5(C)CCC5)cc4C(F)(F)F)C3=O)c2)CC(F)(F)C1` [Compound 16, 2-(6-cyclopropyl-4-(3,3-difluoro-1-(4-methyl-4H-1,2,4-triazol-3-yl)cyclobutyl)pyridin-2-yl)-6-(((1-methylcyclobutyl)amino)methyl)-4-(trifluoromethyl)isoindolin-1-one], the IC50 was 6.9 nM against Cbl-b and 5.2 nM at c-Cbl. On Cbl-b (setting [2]), the “fold-selectivity (Cbl-b over C-cbl)” value is given as “(0.75x)”. The same compound displayed a Fold of selectivity in assay [1] of 1.3×. For the same compound, the results for the Kd (in assay [1]; at c-Cbl (residues 47-435)) were 0.25 nM and 0.34 nM, respectively.

On to `CCNc1cc(C2(c3nncn3C)CC(F)(F)C2)cc(N2Cc3c(cc(CNC4(C)CCC4)cc3C(F)(F)F)C2=O)n1` [Compound 17, 2-(4-(3,3-difluoro-1-(4-methyl-4H-1,2,4-triazol-3-yl)cyclobutyl)-6-(ethylamino)pyridin-2-yl)-6-(((1-methylcyclobutyl)amino)methyl)-4-(trifluoromethyl)isoindolin-1-one], for which the IC50 on Cbl-b turned out to be 5.5 nM; against c-Cbl, 5.1 nM. The “fold-selectivity (Cbl-b over C-cbl)” value on Cbl-b (setting [2]) is listed as “(0.93x)”. Further, the Fold of selectivity in assay [1] is recorded as 3.2×. Also, the Kd is 0.37 nM in assay [1] and 1.1 nM on c-Cbl (residues 47-435).

In the case of `C=C1CC(c2cccc(N3Cc4c(cc(CNC5(C)CCC5)cc4C(F)(F)F)C3=O)c2)(c2nncn2C)C1` [Compound 18, 2-(3-(1-(4-methyl-4H-1,2,4-triazol-3-yl)-3-methylenecyclobutyl)phenyl)-6-(((1-methylcyclobutyl)amino)methyl)-4-(trifluoromethyl)-isoindolin-1-one], the IC50 amounted to 7.9 nM at Cbl-b and 7.7 nM on c-Cbl. In addition, the “fold-selectivity (Cbl-b over C-cbl)” value at Cbl-b (setting [2]) was “(0.97x)”. In assay [1], this compound came in with a Fold of selectivity of 3.7×. The Kd amounted to 1.5 nM in assay [1] and 5.6 nM at c-Cbl (residues 47-435).

`Cn1cnnc1C1(c2cccc(N3Cc4c(cc(CNC5(C)CCC5)cc4C(F)(F)F)C3=O)c2)CC(=O)C1` [Compound 19, 2-(3-(1-(4-methyl-4H-1,2,4-triazol-3-yl)-3-oxocyclobutyl)phenyl)-6-(((1-methylcyclobutyl)-amino)methyl)-4-(trifluoromethyl)isoindolin-1-one]: the IC50 against Cbl-b is 88 nM; at c-Cbl, 176 nM. Also, the “fold-selectivity (Cbl-b over C-cbl)” value on Cbl-b (setting [2]) is reported as “(2.0x)”. This compound also displayed a Fold of selectivity in assay [1] of 5.0×. The Kd in assay [1] was 40 nM; on c-Cbl (residues 47-435) it was 200 nM.

As to `Cn1cnnc1[C@]1(c2cccc(N3Cc4c(cc(CNC5(C)CCC5)cc4C(F)(F)F)C3=O)c2)C[C@@H](O)C1` [Compound 20, 2-(3-((1r,3r)-3-hydroxy-1-(4-methyl-4H-1,2,4-triazol-3-yl)cyclobutyl)phenyl)-6-(((1-methylcyclobutyl)amino)methyl)-4-(trifluoromethyl)isoindolin-1-one], the IC50 was found to be 170 nM at Cbl-b and 390 nM on c-Cbl. For the same compound, the “fold-selectivity (Cbl-b over C-cbl)” value at Cbl-b (setting [2]) is “(2.3x)”. The same compound yielded a Fold of selectivity in assay [1] of 4.4×. For the same compound, the Kd in assay [1] was 80 nM; on c-Cbl (residues 47-435), 350 nM.

For `Cn1cnnc1[C@]1(c2cccc(N3Cc4c(cc(CNC5(C)CCC5)cc4C(F)(F)F)C3=O)c2)C[C@H](O)C1` [Compound 21, 2-(3-((1s,3s)-3-hydroxy-1-(4-methyl-4H-1,2,4-triazol-3-yl)cyclobutyl)phenyl)-6-(((1-methylcyclobutyl)amino)methyl)-4-(trifluoromethyl)isoindolin-1-one], the IC50 was determined as 18 nM on Cbl-b and 41 nM against c-Cbl. In addition, the “fold-selectivity (Cbl-b over C-cbl)” value at Cbl-b (setting [2]) is recorded as “(2.3x)”. For the same compound, in assay [1], the Fold of selectivity was 5.3×. Also, the figures for the equilibrium dissociation constant (Kd) (in assay [1]; on c-Cbl (residues 47-435)) were 4.1 nM and 22 nM, respectively.

With `Cn1cnnc1[C@]1(c2cccc(N3Cc4c(cc(CNC5(C)CCC5)cc4C(F)(F)F)C3=O)c2)C[C@@H](C#N)C1` [Compound 24, (1r,3r)-3-(4-methyl-4H-1,2,4-triazol-3-yl)-3-(3-(6-(((1-methylcyclobutyl)amino)methyl)-1-oxo-4-(trifluoromethyl)isoindolin-2-yl)phenyl)cyclobutanecarbonitrile], the IC50 at Cbl-b was determined as 13 nM; against c-Cbl it was 23 nM. The “fold-selectivity (Cbl-b over C-cbl)” value at Cbl-b (setting [2]) was “(1.8x)”. In assay [1], the Fold of selectivity was determined as 8.4×. For the same compound, the Kd in assay [1] was 1.7 nM; at c-Cbl (residues 47-435) it was 15 nM.

On to `Cn1cnnc1[C@]1(c2cccc(N3Cc4c(cc(CNC5(C)CCC5)cc4C(F)(F)F)C3=O)c2)C[C@H](C#N)C1` [Compound 25, (1s,3s)-3-(4-methyl-4H-1,2,4-triazol-3-yl)-3-(3-(6-(((1-methylcyclobutyl)amino)methyl)-1-oxo-4-(trifluoromethyl)isoindolin-2-yl)phenyl)cyclobutanecarbonitrile], for which the figures for the IC50 on Cbl-b and at c-Cbl were 14 nM and 36 nM, respectively. The “fold-selectivity (Cbl-b over C-cbl)” value on Cbl-b (setting [2]) is on record as “(2.6x)”. In addition, the Fold of selectivity in assay [1] is on record as 5.4×. For the same compound, the Kd in assay [1] amounted to 4 nM; at c-Cbl (residues 47-435), 22 nM.

In the case of `Cn1cnnc1[C@]1(c2cccc(N3Cc4c(cc(CNC5(C)CCC5)cc4C(F)(F)F)C3=O)c2)C[C@](C)(O)C1` [Compound 26, 2-(3-((1s,3s)-3-hydroxy-3-methyl-1-(4-methyl-4H-1,2,4-triazol-3-yl)cyclobutyl)phenyl)-6-(((1-methylcyclobutyl)amino)methyl)-4-(trifluoromethyl)isoindolin-1-one], the IC50 on Cbl-b stood at 30 nM; at c-Cbl, 99 nM. Also, the “fold-selectivity (Cbl-b over C-cbl)” value on Cbl-b (setting [2]) is reported as “(3.3x)”. The same compound showed a Fold of selectivity in assay [1] of 9.0×. Further, the Kd was determined as 10 nM in assay [1] and 90 nM on c-Cbl (residues 47-435).
